Holding throughout (assay): ATP and MEK titrations by TR-FRET (Michaelis constants, substrate inhibition)
Background: Time-resolved FRET reads energy transfer from a long-lived donor to a nearby acceptor.

Assay [1] concerns the target T1, BRAF^WT (Homo sapiens, UniProt P15056).
T1 construct: His6 (N); made in house; host or cells: SF9 insect cells (baculovirus)
In kind it is biochemical. Conditions: apparent Ki of substrate inhibition by ATP.

The target of assay [2] is T2, ARAF^SSDD (Homo sapiens, UniProt P10398, G300S/Y301D/Y302D).
T2 sequence (P10398 274-606 G300S/Y301D/Y302D): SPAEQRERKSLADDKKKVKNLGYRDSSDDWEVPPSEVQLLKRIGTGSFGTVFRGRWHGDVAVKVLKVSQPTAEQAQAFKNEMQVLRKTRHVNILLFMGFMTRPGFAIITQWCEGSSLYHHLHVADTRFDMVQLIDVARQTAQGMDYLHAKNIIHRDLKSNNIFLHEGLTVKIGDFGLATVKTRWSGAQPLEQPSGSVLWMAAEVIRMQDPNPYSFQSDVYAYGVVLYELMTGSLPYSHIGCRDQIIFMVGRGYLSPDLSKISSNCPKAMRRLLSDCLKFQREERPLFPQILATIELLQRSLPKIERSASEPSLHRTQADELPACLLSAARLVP

Assay [3] concerns the target CRAF^WT (Homo sapiens, UniProt P04049).
The target in assay [4] is CRAF^SSDD (Homo sapiens, UniProt P04049, Y340D/Y341D).
Assay [5] deals with BRAF^KD (Homo sapiens, UniProt P15056).
The target of assay [6] is BRAF^V600E (Homo sapiens, UniProt P15056, V600E).

Structures are written as SMILES.

Broadly, the Km is the concentration of substrate that gives half-maximal velocity.

T1 sequence (P15056 419-766): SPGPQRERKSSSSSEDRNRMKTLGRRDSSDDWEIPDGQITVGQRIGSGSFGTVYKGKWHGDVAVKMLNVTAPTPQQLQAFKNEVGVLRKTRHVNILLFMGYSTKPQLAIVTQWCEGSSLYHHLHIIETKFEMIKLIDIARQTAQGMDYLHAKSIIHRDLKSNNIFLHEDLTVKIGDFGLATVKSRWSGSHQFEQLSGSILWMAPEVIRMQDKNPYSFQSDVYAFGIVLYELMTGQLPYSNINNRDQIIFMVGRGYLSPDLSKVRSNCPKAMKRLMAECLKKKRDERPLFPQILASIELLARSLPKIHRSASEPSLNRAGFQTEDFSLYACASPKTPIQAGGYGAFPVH

As for `Nc1ncnc2c1ncn2[C@@H]1O[C@H](COP(=O)(O)OP(=O)(O)OP(=O)(O)O)[C@@H](O)[C@H]1O` [ATP], the Ki in assay [1] is 4.84 ± 2.85 mM; in assay [2] (read-out: Ki-ATP, ARAF^SSDD, apparent Ki of substrate inhibition by ATP), above 15 mM; in assay [3] (read-out: Ki-ATP, CRAF^WT, apparent Ki of substrate inhibition by ATP), above 15 mM; in assay [4] (read-out: Ki-ATP, CRAF^SSDD, apparent Ki of substrate inhibition by ATP) it was above 15 mM; in assay [5] (read-out: Ki-ATP, BRAF^KD, apparent Ki of substrate inhibition by ATP), 3.53 ± 0.58 mM; in assay [6] (read-out: Ki-ATP, BRAF^V600E, apparent Ki of substrate inhibition by ATP) it was 6.34 ± 4.07 mM. For the same compound, the Km amounted to 1.58 ± 0.19 µM in assay [2] (read-out: Km-ATP, ARAF^SSDD, ATP titration, substrate inhibition fit); 1.56 ± 1.5 µM in assay [3] (read-out: Km-ATP, CRAF^WT, ATP titration, substrate inhibition fit); 0.73 ± 0.38 µM in assay [4] (read-out: Km-ATP, CRAF^SSDD, ATP titration, substrate inhibition fit); 12.6 ± 7.8 µM in assay [6] (read-out: Km-ATP, BRAF^V600E, ATP titration, substrate inhibition fit). Besides, in assay [5] (ATP titration, substrate inhibition fit), the “Km-ATP, BRAF^KD” value was determined as 0.00018 ± 4e-05 mM.

(Values after publication PMC12630025, “Characterization and inhibitor sensitivity of ARAF, BRAF, and CRAF kinases [drawing 1]” (The Journal of Biological Chemistry, 2025).)
